Some test systems named below: NCI-H226; UACC-62; HCT-15; A498; A549; NCI-H460; SK-OV-3; COLO 205; NCI-H522; CAKI-1; SNB-19; HCC 2998; U-251; OVCAR-8.
Holding throughout (assay): growth of human tumour cells (NCI), 48 h

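Grown in 96-well plates, cells were treated for 48 hours with each compound at five concentrations. Insufficient inhibition: endpoint recorded as highest concentration tested. Abbreviation: GI50, concentration required for 50% inhibition of growth.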 Calls of active or inactive are those of the source. No stated cut-off is given here; in the data, active = GI50 up to about 1.1 µM and inactive = higher.

As to `COc1ccccc1/C=C(\C#N)C(=O)c1ccccc1`, the GI50 with NCI-H226 was > 100 µM (inactive); in the experiment with UACC-62 it was > 100 µM (inactive); in the experiment on HCT-15 it was > 100 µM; in the experiment on A498 it was > 100 µM (inactive); with A549, > 100 µM (inactive); in the experiment with NCI-H460, > 100 µM (inactive). Further, the GI50 in the experiment on SK-OV-3, in the experiment on COLO 205, in the experiment with NCI-H522, in the experiment on CAKI-1, with SNB-19 and in the experiment with HCC 2998 was > 100 µM (inactive) throughout. For the same compound, the GI50 in the experiment on U-251 and in the experiment on OVCAR-8 was > 100 µM (inactive) in each case.

Take `C[C@]12Cc3conc3C(O)=C1CC[C@@H]1C2CC[C@@]2(C)C1CC[C@@H]2O` (some centres not stated): the GI50 with NCI-H226 was 18 µM (inactive); with UACC-62, 4.99 µM (inactive); in the experiment with HCT-15, 5.65 µM; with A498, 9.12 µM (inactive); with A549 it was 17.9 µM (inactive); with NCI-H460, 12.6 µM (inactive). For the same compound, the GI50 in the experiment on SK-OV-3 was 31.3 µM (inactive); in the experiment on COLO 205, 32.7 µM (inactive); in the experiment with NCI-H522 it was 2.95 µM (inactive); in the experiment on CAKI-1, 8.24 µM (inactive); with SNB-19 it was 31.4 µM (inactive); in the experiment with U-251, 20 µM (inactive). Further, in the experiment with OVCAR-8, the GI50 was 25.8 µM (inactive).

Turning to `CC(=O)Oc1ccc2c(=O)c(C(C)=O)coc2c1`, the GI50 was 83.9 µM (inactive) in the experiment on NCI-H226; > 100 µM in the experiment with HCT-15; 58.1 µM (inactive) in the experiment on A498; > 100 µM (inactive) in the experiment on A549; > 100 µM (inactive) in the experiment on NCI-H460; > 100 µM (inactive) in the experiment on COLO 205. In addition, the GI50 with NCI-H522, with CAKI-1, in the experiment on SNB-19, with U-251 and in the experiment on OVCAR-8 was > 100 µM (inactive) throughout.

As to `Cc1nn(C)c(=S)n(C)c1=O`, the GI50 was 7.53 µM (inactive) in the experiment on NCI-H226; 0.757 µM (active) in the experiment with UACC-62; 3.76 µM with HCT-15; 3.22 µM (inactive) with A498; 0.439 µM (active) with A549; 0.394 µM (active) in the experiment on NCI-H460. The GI50 in the experiment with SK-OV-3 was 14.7 µM (inactive); with COLO 205 it was 4.16 µM (inactive); in the experiment with NCI-H522 it was 0.275 µM (active); in the experiment on SNB-19 it was 0.802 µM (active); with HCC 2998, 4.1 µM (inactive); in the experiment on U-251 it was 1.75 µM (inactive). In addition, the GI50 in the experiment with OVCAR-8 was 0.571 µM (active).

As to `COc1ccc2c(c1OCC(=O)O)C(=O)C(CCC(=O)O)CC2` (configuration not stated), the GI50 in the experiment with UACC-62 is > 100 µM (inactive); with HCT-15, > 100 µM; in the experiment on A498 it was > 100 µM (inactive); in the experiment with A549, > 100 µM (inactive); in the experiment with NCI-H460 it was > 100 µM (inactive); in the experiment with SK-OV-3, > 100 µM (inactive). In addition, the GI50 with COLO 205, with CAKI-1, in the experiment with SNB-19, with HCC 2998, with U-251 and in the experiment on OVCAR-8 was > 100 µM (inactive) each time.

Turning to `CC(=O)O[C@]1(C)CCC2C(C)C(=O)OC2C2C(C)[C@@H](O)CC21` (some centres not stated), the GI50 with NCI-H226 is 31.4 µM (inactive); in the experiment with UACC-62 it was 33.9 µM (inactive); in the experiment with HCT-15 it was 18.1 µM; in the experiment on A498, 19.8 µM (inactive); in the experiment with A549, 52.7 µM (inactive); in the experiment on NCI-H460 it was 66.5 µM (inactive). Further, the GI50 in the experiment on SK-OV-3 is 49.9 µM (inactive); in the experiment on COLO 205, 20 µM (inactive); in the experiment on NCI-H522, 13.1 µM (inactive); in the experiment on CAKI-1, 47.2 µM (inactive); with SNB-19 it was 28.3 µM (inactive); with HCC 2998 it was 24.6 µM (inactive). Further, the GI50 is 30.1 µM (inactive) with U-251 and 87.9 µM (inactive) in the experiment on OVCAR-8.

With `O=C(O)CCNS(=O)(=O)c1ccc2ccccc2c1`, the GI50 in the experiment with NCI-H226 is > 100 µM (inactive); in the experiment on UACC-62 it was > 100 µM (inactive); in the experiment with HCT-15 it was > 100 µM; in the experiment on A498 it was > 100 µM (inactive); with A549, > 100 µM (inactive); with NCI-H460, > 100 µM (inactive). Further, the GI50 with SK-OV-3, in the experiment on COLO 205, in the experiment with NCI-H522, with CAKI-1, in the experiment with SNB-19 and in the experiment with HCC 2998 was > 100 µM (inactive) throughout. The GI50 in the experiment with U-251 and in the experiment with OVCAR-8 was > 100 µM (inactive) throughout.

For the compound `O=C1C(=O)N(C2C3CC4CC(C3)CC2C4)C(=O)C(=O)C1c1nc2ccccc2o1` (configuration not stated), the GI50 in the experiment on NCI-H226 is > 100 µM (inactive); with UACC-62, > 100 µM (inactive); with HCT-15, 43.6 µM; in the experiment on A549, > 100 µM (inactive); with NCI-H460, > 100 µM (inactive); in the experiment with SK-OV-3 it was > 100 µM (inactive). Further, the GI50 in the experiment with COLO 205 is 51.6 µM (inactive); in the experiment with CAKI-1, > 100 µM (inactive); in the experiment on SNB-19 it was > 100 µM (inactive); in the experiment on HCC 2998, 57.5 µM (inactive); in the experiment with U-251, 23.1 µM (inactive); in the experiment on OVCAR-8, > 100 µM (inactive).

With `O=c1[nH]n2c(=O)cc[nH]c2c1-c1nnns1`, the GI50 is > 100 µM (inactive) in the experiment with NCI-H226; > 100 µM in the experiment on HCT-15; > 100 µM (inactive) in the experiment with A498; > 100 µM (inactive) with A549; > 100 µM (inactive) with NCI-H460; > 100 µM (inactive) in the experiment on SK-OV-3. In addition, the GI50 in the experiment on COLO 205, in the experiment with NCI-H522, in the experiment on CAKI-1, in the experiment with SNB-19, with HCC 2998 and in the experiment on U-251 was > 100 µM (inactive) in each case.

With `Cc1ccc(/C=N/C23CC4CC(CC(C4)C2)C3)cc1`, the GI50 in the experiment on NCI-H226 is > 100 µM (inactive); with HCT-15 it was > 100 µM; in the experiment with A498, > 100 µM (inactive); in the experiment with A549, > 100 µM (inactive); with NCI-H460 it was > 100 µM (inactive); in the experiment with SK-OV-3 it was > 100 µM (inactive). The GI50 with COLO 205, with CAKI-1, in the experiment on HCC 2998, with U-251 and in the experiment on OVCAR-8 was > 100 µM (inactive) each time.

In the case of `CC(=O)Nc1ccc(C(=O)N2N=C(C)/C(=C/c3ccccc3O)C2=O)cc1`, the GI50 is > 100 µM (inactive) in the experiment on NCI-H226; > 100 µM in the experiment with HCT-15; > 100 µM (inactive) in the experiment on A549; > 100 µM (inactive) in the experiment on NCI-H460; > 100 µM (inactive) with COLO 205; > 100 µM (inactive) in the experiment with NCI-H522. Moreover, the GI50 with CAKI-1, in the experiment with SNB-19, in the experiment on HCC 2998 and with OVCAR-8 was > 100 µM (inactive) each time.

Regarding `NCCn1cnc2nc(NC(=O)c3ccccc3)[nH]c(=O)c21`, the GI50 was > 100 µM (inactive) with NCI-H226; > 100 µM with HCT-15; > 100 µM (inactive) in the experiment with A498; > 100 µM (inactive) in the experiment on A549; > 100 µM (inactive) in the experiment on NCI-H460; > 100 µM (inactive) in the experiment with COLO 205. Moreover, the GI50 with SNB-19, in the experiment with HCC 2998, in the experiment on U-251 and in the experiment on OVCAR-8 was > 100 µM (inactive) in each case.

For `Cc1ccc(S(=O)(=O)c2ccc(N)cc2)cc1`, the GI50 in the experiment with NCI-H226 was > 10 µM (inactive); with UACC-62, > 100 µM (inactive); in the experiment with HCT-15 it was > 100 µM; with A498, > 100 µM (inactive); in the experiment on A549 it was > 100 µM (inactive); with NCI-H460, > 100 µM (inactive). Besides, the GI50 in the experiment with SK-OV-3 is > 100 µM (inactive); with CAKI-1 it was 97.9 µM (inactive); with HCC 2998, > 100 µM (inactive); in the experiment with U-251 it was > 100 µM (inactive); in the experiment with OVCAR-8, > 100 µM (inactive).

Regarding `COc1cccc(NC(=O)CSc2nnc(-c3ccc(/N=C\c4ccc(Cl)cc4)cc3)o2)c1`, the GI50 with NCI-H226 was 22.8 µM (inactive); with UACC-62, 14.3 µM (inactive); in the experiment on HCT-15 it was 17.3 µM; with A549, 27.2 µM (inactive); with NCI-H460 it was 20.1 µM (inactive); with SK-OV-3, 33.3 µM (inactive). For the same compound, the GI50 in the experiment with COLO 205 is 19.4 µM (inactive); in the experiment on NCI-H522, 15.6 µM (inactive); in the experiment with SNB-19 it was 19.5 µM (inactive); in the experiment on U-251, 17.1 µM (inactive); in the experiment on OVCAR-8 it was 24.4 µM (inactive).

With `c1nc2cscc2c2cscc12`, the GI50 was 29.2 µM (inactive) in the experiment with NCI-H226; > 100 µM (inactive) in the experiment with UACC-62; > 100 µM in the experiment with HCT-15; > 100 µM (inactive) in the experiment on A498; > 100 µM (inactive) with A549; > 100 µM (inactive) in the experiment on NCI-H460. The GI50 in the experiment on SK-OV-3 is 37 µM (inactive); in the experiment on NCI-H522, > 100 µM (inactive); in the experiment on CAKI-1 it was 42.8 µM (inactive); in the experiment with SNB-19 it was > 100 µM (inactive); in the experiment on HCC 2998, > 100 µM (inactive); in the experiment with U-251 it was > 100 µM (inactive). In addition, the GI50 with OVCAR-8 is > 100 µM (inactive).

Regarding `O=[N+]([O-])c1cc(I)cc(/C=N/NS(=O)(=O)c2ccc(Cl)cc2)c1O`, the GI50 with UACC-62 was 26.1 µM (inactive); in the experiment on HCT-15 it was 20.4 µM; in the experiment with A498, 22.9 µM (inactive); with A549, 35.8 µM (inactive); in the experiment on NCI-H460, 19.9 µM (inactive); in the experiment on SK-OV-3, 24.7 µM (inactive). The GI50 in the experiment on COLO 205 was 18.9 µM (inactive); with NCI-H522, 16.9 µM (inactive); in the experiment with CAKI-1, 22.3 µM (inactive); with SNB-19, 29.9 µM (inactive); in the experiment with HCC 2998, 22.1 µM (inactive); in the experiment with U-251 it was 18.7 µM (inactive). The GI50 in the experiment with OVCAR-8 is 20.7 µM (inactive).

As to `CC(C)(C)OC(=O)NCC(=O)OCc1ccccc1`, the GI50 was > 100 µM (inactive) in the experiment with UACC-62; > 100 µM with HCT-15; > 100 µM (inactive) in the experiment with A498; > 100 µM (inactive) with A549; > 100 µM (inactive) in the experiment with NCI-H460; > 100 µM (inactive) in the experiment with SK-OV-3. For the same compound, the GI50 in the experiment on COLO 205 was > 100 µM (inactive); in the experiment with NCI-H522, > 10 µM (inactive); in the experiment on CAKI-1, > 10 µM (inactive); in the experiment on SNB-19 it was > 100 µM (inactive); in the experiment on HCC 2998, > 100 µM (inactive); in the experiment on U-251, > 100 µM (inactive). Also, the GI50 with OVCAR-8 was > 100 µM (inactive).

For the origin of these results see ChEMBL document CHEMBL1201862, “PubChem BioAssay data set” (2004).
